Patent US20100266716A1, “Natural Photodynamic Agents and their use” (priority 2007, published 2010)

Key:
[1] = test system: Salmonella choleraesuis; assay: MBEC device biofilm photodynamic killing (Example 1); format: cell-based; parameters: key to Killing of Salmonella cholerasuis biofilm (eradication or growth): “−” = biofilm eradication at the mentioned conditions (concentration, exposure time and Light source); “+” = biofilm growth; settings: for Killing of Salmonella cholerasuis biofilm (eradication or growth): 16 Hours exposure; for effective as photodynamic agent in killing biofilm organisms: Salmonella choleraesuis and Staphylococcus aureus biofilm, summary of Table 1
From the text: (§1) Test microorganisms included Salmonella choleraesuis, Staphylococcus aureus, foodborne pathogens of humans. Test Compounds included Methylene blue, Hemoglobin (blood product), Hemin (blood product), Protoporphyrin (blood product), Annatto Extract (15% Norbixin), beet juice, Canthaxanthin (10%), Beta-carotene (1%), Purple carmine 50%, Carmine lake 60%, Black Carrot extract, Tomato lycopene (5%), sodium copper chlorophyllin, grape skin extract, paprika oleoresin, riboflavin, saffron, titanium dioxide, FD&C blue No1., turmeric oleoresin, FD&C blue No. 2, FD&C Green No. 3, FD&C Red No. 2 (Amaranth), FD&C Red No. 40, FD&C Yellow No. 5, and FD&C Yellow No. 6. Compounds were prepared as 1%, 0.1%, 0.01%, by weight, dissolved in water.
(§2) The light source was a full spectrum fluorescent light or LED light and the contact time was 1 and 16 hours. The study temperature was 37° C.
(§3) Approximately 10^6 organisms in 150 uL Cation Adjusted Mueller Hinton Broth (CAMHB) were placed in each of the wells of a 96 peg MBEC device. The lid of the 96 peg MBEC device was placed on the bottom plate containing organism. The device was placed on a shaker, set to 110 rpm, and incubated at 37° C. for 24 hours to produce biofilms.
(§4) The challenge plates were set up using a sterile 96-well microtitre plate using aseptic techniques in the following manner (one organism per plate, per light exposure time, per light source). Test solutions (200 uL) were placed into each well. The lid was transferred to the challenge plate and exposed to the various light sources for the prescribed exposure times (16 hours). Following the treatment, the pegs were transferred to the recovery media (“recovery plate”) then wrapped in tin foil and incubated at 37° C. for 18 to 24 hours. The recovery plate(s) was wrapped in tin foil, incubated at 37° C. for 24 hours and read visually and by a plate reader, set to an optical density measurement of 630 nm, to determine Minimum Biofilm Eradication Concentration (MBEC) by looking at growth or no growth.

[2] = test system: Staphylococcus aureus; assay: as above; format: cell-based; parameters: key to Killing of Staph aureus biofilm (eradication or growth): “−” = biofilm eradication at the mentioned conditions (concentration, exposure time and Light source); “+” = biofilm growth; settings: 16 Hours exposure
From the text: as §1, §2, §3, §4

| Compound | Killing of Salmonella cholerasuis biofilm (eradication or growth) ([1]; Fluorescent Light, 0.01%) | Killing of Salmonella cholerasuis biofilm (eradication or growth) ([1]; Fluorescent Light, 0.1%) | Killing of Salmonella cholerasuis biofilm (eradication or growth) ([1]; Fluorescent Light, 1%) | Killing of Salmonella cholerasuis biofilm (eradication or growth) ([1]; LED Light, 0.01%) | Killing of Salmonella cholerasuis biofilm (eradication or growth) ([1]; LED Light, 0.1%) | Killing of Salmonella cholerasuis biofilm (eradication or growth) ([1]; LED Light, 1%) | effective as photodynamic agent in killing biofilm organisms [1] | Killing of Staph aureus biofilm (eradication or growth) ([2]; Fluorescent Light, 0.01%) | Killing of Staph aureus biofilm (eradication or growth) ([2]; Fluorescent Light, 0.1%) | Killing of Staph aureus biofilm (eradication or growth) ([2]; Fluorescent Light, 1%) | Killing of Staph aureus biofilm (eradication or growth) ([2]; LED Light, 0.01%) | Killing of Staph aureus biofilm (eradication or growth) ([2]; LED Light, 0.1%) | Killing of Staph aureus biofilm (eradication or growth) ([2]; LED Light, 1%) |
| --- | --- | --- | --- | --- | --- | --- | --- | --- | --- | --- | --- | --- | --- |
| CCN(Cc1cccc(S(=O)(=O)[O-])c1)c1ccc(C(=C2C=CC(=[N+](CC)Cc3cccc(S(=O)(=O)[O-])c3)C=C2)c2ccccc2S(=O)(=O)[O-])cc1.[Na+].[Na+] [Blue No. 1, FD&C blue No1.] | − | − | − | + | + | + | Effective | + | + | + | + | + | + |
| Hemoglobin: Hemoglobin (blood product) | − | − | − | + | + | + | Effective | + | + | + | + | + | + |
| CCN(Cc1cccc(S(=O)(=O)[O-])c1)c1ccc(C(=C2C=CC(=[N+](CC)Cc3cccc(S(=O)(=O)[O-])c3)C=C2)c2ccc(O)cc2S(=O)(=O)[O-])cc1.[Na+].[Na+] [Green No. 3, FD&C Green No. 3] | + | + | + | + | + | + |  | + | + | + | + | + | + |
| sodium copper chlorophyllin | + | + | + | + | + | + |  | + | + | + | + | + | + |
